The term inhibition denotes the share of the control response that was lost under treatment. What is called IC50 is the point on the concentration scale where inhibition reaches its midpoint.

Data on one compound can be found in patent publication EP0745083B1, “2-HETEROARYL-5,11-DIHYDRO-6H-DIPYRIDO [3,2-b:2',3'-e][1,4]DIAZEPINES AND THEIR USE IN THE PREVENTION OR TREATMENT OF HIV INFECTION” (BOEHRINGER INGELHEIM PHARMACEUTICALS INC., priority 1994, dated 1995).

The target in test [1] is T1, HIV-1 RT wild type (WT) enzyme (Human immunodeficiency virus type 1 group M subtype B, UniProt P03367).
T1 construct: Reverse transcriptase enzyme from the LAV strain of Human Immunodeficiency Virus (HIV-1) (1) was isolated from the bacterial strain JM109; made in house; host or cells: E. coli JM109 (clone pBRTprt1+ in vector pIBI21, lac promoter)
In words: Reverse Transcriptase (RT) Assay, wild type enzyme (RNA-dependent DNA polymerase activity). Type of test: biochemical, Human Immunodeficiency Virus (HIV-1). The following applies: 1 µM compound, read-out: Reverse Transciptase Assay % inhibition (1 µM) WT. From the text: Utilizing the Reverse Transcriptase (RT) Assay described below, compounds can be tested for their ability to inhibit the RNA-dependent DNA polymerase activity of HIV-1 RT. Certain specific compounds described in the Examples which appear below, were so tested.
(§1) Among the enzymes for which Human Immunodeficiency Virus (HIV-1) encodes is a reverse transcriptase (1), so-named because it transcribes a DNA copy from an RNA template. This activity can be quantitatively measured in a cell-free enzyme assay, which has been previously described (2), and is based upon the observation that reverse transcriptase is able to use a synthetic template [poly r(C) primed with oligo d(G)] to transcribe a radio-labelled, acid-precipitable DNA strand utilizing ^3H-dGTP as a substrate. The assay described below utilizes the wild type (WT) enzyme, which is the predominant form of the enzyme observed in patients infected with HIV-1. Utilization of mutant RT eraymes (Y181C and Y181L, prepared by site-directed mutagenesis in which the tyrosine residue at codon 181 has been replaced by a cysteine or a leucine residue, respectively) and analogous assay conditions allows compounds to be evaluated for their effectiveness at inhibiting these mutant enzymes.
Reverse transcriptase enzyme from the LAV strain of Human Immunodeficiency Virus (HIV-1) (1) was isolated from the bacterial strain JM109 (3) expressing the DNA clone pBRTprt1+ (2) which is under the control of the lac promotor in the expression vector pIBI21 (4). An overnight culture grown in 2XYT medium (37°C, 225 rpm) (5) supplemented with 100 µg/mL ampicillin for positive selection is inoculated at a 1:40 dilution into M9 medium supplemented with 10µg/mL thiamine, 0.5% casamino acids, and 50 µg/mL ampicillin (5). The culture is incubated (37°C, 225 rpm) until it reaches an OD540 of 0.3-0.4. At that time the repressor inhibitor IPTG (isopropyl β-D-thiogalactopyranoside) is added to 0.5mM, and the mixture is incubated for 2 additional hours. Bacteria are pelleted, resuspended in a 50mM Tris, 0.6mM EDTA, 0.375M NaCl buffer and digested by the addition of lysozyme (1mg/mL) for 30 minutes on ice. The cells are lysed by the addition of 0.2% NP-40 and brought to 1M NaCl.
After removal of the insoluble debris by centrifugation, the protein is precipitated by the addition of 3 volumes of saturated aqueous ammonium sulfate. The enzyme is pelleted, resuspended in RT buffer (50mM Tris pH 7.5, 1mM EDTA, 5mM DTT, 0.1% NP-40, 0.1M NaCI, and 50% glycerol), and stored at -70°C for further use.
The 2X concentrated stock reaction mixture is aliquoted and stored at -20°C. The mixture is stable and thawed for use in each assay. This enzyme assay has been adapted to a 96 well microtiter plate system, and has been previously described (6). Tris buffer (50 mM, pH 7.4), vehicle (solvent diluted to match the compound dilution), or compounds in vehicle are dispensed into 96-well microtiter plates (10µL/well; 3 wells/ compound). The HIV-1 RT enzyme is thawed, diluted in 50mM Tris pH 7.4 so that fifteen µL of diluted enzyme contain 0.001 Unit (one unit is that amount of enzyme to transform 1 micromole of substrate per minute at 25°C), and fifteen µL are dispensed per well. Twenty µL of 0.12-0.5M EDTA are added to the first three wells of the microtiter plate. EDTA chelates the Mg^++ present and prevents reverse transcription. This group serves as background polymerization which is subtracted from all other groups. Twenty-five ul of the 2X reaction mixture are added to all wells and the assay is allowed to incubate at room temperature for 60 minutes. The assay is terminated by precipitating the DNA in each well with 50µL of 10% trichloracetic acid (TCA) (10% w/v) in sodium pyrophosphate (1% w/v). The microtiter plate is incubated for 15 minutes at 4°C and the precipitate is fixed onto #30 glass fiber paper (Schleicher & Schuell) using a Skatron semi-automatic harvester. […]

In a further test the target is T2, HIV-1 RT Y181C (Human immunodeficiency virus type 1 group M subtype B, UniProt P03367, Y780C).
T2 construct: Utilization of mutant RT eraymes (Y181C and Y181L, prepared by site-directed mutagenesis); made in house
In words: Reverse Transcriptase (RT) Assay, Y181C mutant enzyme. The test is classed as biochemical, Human Immunodeficiency Virus (HIV-1). The following applies: 1 µM compound, read-out: Reverse Transciptase Assay % inhibition (1 µM) Y181C.
From the text: as §1
The 2X concentrated stock reaction mixture is aliquoted and stored at -20°C. The mixture is stable and thawed for use in each assay. This enzyme assay has been adapted to a 96 well microtiter plate system, and has been previously described (6). Tris buffer (50 mM, pH 7.4), vehicle (solvent diluted to match the compound dilution), or compounds in vehicle are dispensed into 96-well microtiter plates (10µL/well; 3 wells/ compound). The HIV-1 RT enzyme is thawed, diluted in 50mM Tris pH 7.4 so that fifteen µL of diluted enzyme contain 0.001 Unit (one unit is that amount of enzyme to transform 1 micromole of substrate per minute at 25°C), and fifteen µL are dispensed per well. Twenty µL of 0.12-0.5M EDTA are added to the first three wells of the microtiter plate. EDTA chelates the Mg^++ present and prevents reverse transcription. This group serves as background polymerization which is subtracted from all other groups. Twenty-five ul of the 2X reaction mixture are added to all wells and the assay is allowed to incubate at room temperature for 60 minutes. The assay is terminated by precipitating the DNA in each well with 50µL of 10% trichloracetic acid (TCA) (10% w/v) in sodium pyrophosphate (1% w/v). The microtiter plate is incubated for 15 minutes at 4°C and the precipitate is fixed onto #30 glass fiber paper (Schleicher & Schuell) using a Skatron semi-automatic harvester. The filters are then washed with additional TCA (5%) containing sodium pyrophosphate (1%), rinsed with aqueous ethanol (70%), dried, and transferred to scintillation vials (6). Each vial receives 2 mL of scintillation cocktail and is counted in a Beckman beta counter. The calculation for percent inhibition is as follows: % inhibition =(CPM Mean Test Value - CPM Mean Control Value X100)/(CPM Mean Control Value) [formula]

Another test deals with T3, HIV-1 RT Y188L (Human immunodeficiency virus type 1 group M subtype B, UniProt P03367, Y787L).
T3 construct: effective against the reverse transcriptase of many mutant viruses; made in house
In words: Reverse Transcriptase (RT) Assay, Y188L mutant enzyme. As to conditions: 1 µM compound. The test is classed as biochemical, Human Immunodeficiency Virus (HIV-1).

The subject of test [2] is HTLV-IIIB strain of HIV-1. In words: Syncytia (human T-cell culture) assay. Type of test: cell-based. The following applies: Human immunodeficiency virus 1, IIIB, 96 h; c8166 cells; read four days after virus challenge. The protocol: In order to confirm that compounds which are active in the RT Assay also have the ability to inhibit HIV replication in a living system, compounds according to the invention were also tested in the human T-Cell Culture (Syncytia) Assay described below.
Formation of syncytia is a feature of in vitro cultures of CD4+ T-cells infected with HIV-1. In this assay, T-cells are treated with a putative replication inhibiting compound and then infected with HIV-1. After incubation, the culture is checked for the formation of syncytia. The absence or reduction in the number of syncytia is used as a measure of the test compound's ability to inhibit HIV replication.
The target cells, designated c8166, are a subclone of human lymphoma cells of T-cell origin and are established at an initial density of 5x10^4 per 100 ul in RPMI 1640 (+ 10% fetal bovine serum) culture medium in 96 well flat bottom plates. A selected amount of test compound, dissolved in DMSO, is included. After 24 hours, 50-100 TCID50's (the dose that results in induced effect in 50% of test cultures) of the HTLV-IIIB strain of HIV-1 (2) are inoculated into each culture. Control cultures receive compound or virus only. Four days after virus challenge, cultures are visually examined for the frequency and distribution of virus-induced giant cell syncytia. The percent inhibition by the test compound is determined by comparison with control values. Confirmation of the presence or absence of virus replication is accomplished by harvesting the cell free culture fluids from all experimental groups to determine the presence or absence of infectious progeny through the induction of syncytia formation in secondary human T-cell cultures after 3 days.

As to `CCN1c2ncccc2C(=O)N(C)c2ccc(-c3ccc[nH]3)nc21` [Example 13, 5,11-Dihydro-11-ethyl-5-methyl-2-(2-pyrrolyl)-6H-dipyrido[3,2-b:2',3'-e][1,4]diazepin-6-one], the inhibition at 1 µM amounted to 88% in test [1] and 80% on HIV-1 RT Y181C. For the same compound, the “Reverse Transciptase Assay % inhibition (1 µM) Y188L” value on HIV-1 RT Y188L came out at 17%. The IC50 in test [2] amounted to 160 nM.
